Like-named read-outs stand apart in the source and are kept apart here.
How the values were obtained:
Experiment in all cases: Methyltransferase selectivity assay (SPA)
Type in all cases: biochemical
PRMT8 = molecular target: T1, PRMT8 (Homo sapiens, UniProt Q9NR22); details: for activity at 1 µM / Activity %: 1µM compound; for Activity %: Exp1, Exp2, 1 µM; for activity at 10 µM: 10µM compound
T1 construct: purchased Structural Genomics Consortium (SGC Toronto) in-house methyltransferase panel
Experimental: (§1) Selectivity against methyltransferases were determined as described previously. Details of the assays are described in the supplementary methods.
(§2) Methyltransferase selectivity assay1
(§3) The effect of chemical probes and negative controls on the methyltransferase activities of protein, DNA and RNA methyltransferases was tested by radiometric assays using 3H-SAM. For proteins such as MLL1 trimeric, MLL3 pentameric, EZH1 (PRC2) pentameric, and EZH2 (PRC2) trimeric complexes, as well as G9a, GLP, SUV39H1, SUV39H2, SUV420H1, SUV420H2, SETD2, SETD8, SETDB1, SETD7, PRMT1, PRMT3, PRMT4, PRMT5/ MEP50 complex, PRMT6, PRMT7, PRMT8, PRMT9, PRDM9, SMYD2, SMYD3, DNMT1, and BCDIN3D the incorporation of a tritium-labeled methyl group into biotinylated substrate was monitored using scintillation proximity assay (SPA). Briefly, a 10 µL reaction containing 3H-SAM and substrate at concentrations close to the apparent Km values for each enzyme (balanced conditions) was prepared. The reactions were quenched with 10 µL of 7.5 M guanidine hydrochloride; 180 µL of 20 mM Tris buffer (pH 8.0) were added, and the mixture was transferred to a 96-well FlashPlate and incubated for 1 h. The counts per minute (CPM) was measured on a TopCount plate reader. The CPM in the absence of compound or enzyme was defined as 100% activity and background (0%), respectively, for each dataset. […]

SMYD2 = molecular target: T2, SMYD2 (Homo sapiens, UniProt Q9NRG4)
T2 construct: purchased Structural Genomics Consortium (SGC Toronto) in-house methyltransferase panel
T2 sequence (Q9NRG4 whole entry): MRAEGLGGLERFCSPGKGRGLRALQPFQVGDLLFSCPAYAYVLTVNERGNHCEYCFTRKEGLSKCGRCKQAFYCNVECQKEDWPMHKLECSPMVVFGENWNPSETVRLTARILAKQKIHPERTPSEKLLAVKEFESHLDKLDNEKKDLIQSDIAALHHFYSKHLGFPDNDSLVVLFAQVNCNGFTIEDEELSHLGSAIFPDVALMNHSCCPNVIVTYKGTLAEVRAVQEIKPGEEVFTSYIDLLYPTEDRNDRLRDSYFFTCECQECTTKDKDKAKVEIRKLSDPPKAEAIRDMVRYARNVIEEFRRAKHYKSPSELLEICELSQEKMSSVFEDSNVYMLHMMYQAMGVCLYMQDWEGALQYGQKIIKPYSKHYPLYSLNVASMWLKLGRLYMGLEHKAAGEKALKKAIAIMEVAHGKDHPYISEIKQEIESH
Experimental: as §1, §2, §3

MLL1 trimeric complex = molecular target: T3, MLL1 trimeric complex (Homo sapiens, UniProt Q03164)
T3 construct: purchased Structural Genomics Consortium (SGC Toronto) in-house methyltransferase panel
Experimental: as §1, §2, §3

SUV39H2 = molecular target: T4, SUV39H2 (Homo sapiens, UniProt Q9H5I1)
T4 construct: purchased Structural Genomics Consortium (SGC Toronto) in-house methyltransferase panel
T4 sequence (Q9H5I1 whole entry): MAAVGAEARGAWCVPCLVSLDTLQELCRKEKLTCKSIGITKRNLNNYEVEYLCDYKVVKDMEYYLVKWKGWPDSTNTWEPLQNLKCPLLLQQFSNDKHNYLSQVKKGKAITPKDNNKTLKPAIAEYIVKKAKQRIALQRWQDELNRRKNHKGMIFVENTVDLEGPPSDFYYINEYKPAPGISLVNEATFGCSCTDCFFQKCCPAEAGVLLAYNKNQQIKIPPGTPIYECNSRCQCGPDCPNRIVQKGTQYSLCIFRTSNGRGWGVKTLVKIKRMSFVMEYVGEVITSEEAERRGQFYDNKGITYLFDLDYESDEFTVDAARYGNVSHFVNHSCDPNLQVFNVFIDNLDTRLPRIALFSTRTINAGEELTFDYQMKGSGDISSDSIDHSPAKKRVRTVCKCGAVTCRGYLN
Experimental: as §1, §2, §3

SUV420H2 = molecular target: T5, SUV420H2 (Homo sapiens, UniProt Q86Y97)
T5 construct: purchased Structural Genomics Consortium (SGC Toronto) in-house methyltransferase panel
T5 sequence (Q86Y97 whole entry): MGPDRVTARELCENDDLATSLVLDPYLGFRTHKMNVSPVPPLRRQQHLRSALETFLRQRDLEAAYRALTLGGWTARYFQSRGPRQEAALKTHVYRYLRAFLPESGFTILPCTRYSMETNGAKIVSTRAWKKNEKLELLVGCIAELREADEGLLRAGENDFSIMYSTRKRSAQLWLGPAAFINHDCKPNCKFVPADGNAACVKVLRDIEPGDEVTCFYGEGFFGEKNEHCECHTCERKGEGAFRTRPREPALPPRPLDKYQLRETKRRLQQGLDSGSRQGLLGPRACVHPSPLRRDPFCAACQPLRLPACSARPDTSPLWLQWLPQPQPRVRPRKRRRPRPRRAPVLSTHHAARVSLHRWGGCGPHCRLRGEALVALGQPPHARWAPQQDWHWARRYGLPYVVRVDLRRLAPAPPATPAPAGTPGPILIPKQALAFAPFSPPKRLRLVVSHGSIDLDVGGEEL
Experimental: as §1, §2, §3

SETD2 = molecular target: T6, SETD2 (Homo sapiens, UniProt Q9BYW2)
T6 construct: purchased Structural Genomics Consortium (SGC Toronto) in-house methyltransferase panel
T6 sequence (Q9BYW2 whole entry): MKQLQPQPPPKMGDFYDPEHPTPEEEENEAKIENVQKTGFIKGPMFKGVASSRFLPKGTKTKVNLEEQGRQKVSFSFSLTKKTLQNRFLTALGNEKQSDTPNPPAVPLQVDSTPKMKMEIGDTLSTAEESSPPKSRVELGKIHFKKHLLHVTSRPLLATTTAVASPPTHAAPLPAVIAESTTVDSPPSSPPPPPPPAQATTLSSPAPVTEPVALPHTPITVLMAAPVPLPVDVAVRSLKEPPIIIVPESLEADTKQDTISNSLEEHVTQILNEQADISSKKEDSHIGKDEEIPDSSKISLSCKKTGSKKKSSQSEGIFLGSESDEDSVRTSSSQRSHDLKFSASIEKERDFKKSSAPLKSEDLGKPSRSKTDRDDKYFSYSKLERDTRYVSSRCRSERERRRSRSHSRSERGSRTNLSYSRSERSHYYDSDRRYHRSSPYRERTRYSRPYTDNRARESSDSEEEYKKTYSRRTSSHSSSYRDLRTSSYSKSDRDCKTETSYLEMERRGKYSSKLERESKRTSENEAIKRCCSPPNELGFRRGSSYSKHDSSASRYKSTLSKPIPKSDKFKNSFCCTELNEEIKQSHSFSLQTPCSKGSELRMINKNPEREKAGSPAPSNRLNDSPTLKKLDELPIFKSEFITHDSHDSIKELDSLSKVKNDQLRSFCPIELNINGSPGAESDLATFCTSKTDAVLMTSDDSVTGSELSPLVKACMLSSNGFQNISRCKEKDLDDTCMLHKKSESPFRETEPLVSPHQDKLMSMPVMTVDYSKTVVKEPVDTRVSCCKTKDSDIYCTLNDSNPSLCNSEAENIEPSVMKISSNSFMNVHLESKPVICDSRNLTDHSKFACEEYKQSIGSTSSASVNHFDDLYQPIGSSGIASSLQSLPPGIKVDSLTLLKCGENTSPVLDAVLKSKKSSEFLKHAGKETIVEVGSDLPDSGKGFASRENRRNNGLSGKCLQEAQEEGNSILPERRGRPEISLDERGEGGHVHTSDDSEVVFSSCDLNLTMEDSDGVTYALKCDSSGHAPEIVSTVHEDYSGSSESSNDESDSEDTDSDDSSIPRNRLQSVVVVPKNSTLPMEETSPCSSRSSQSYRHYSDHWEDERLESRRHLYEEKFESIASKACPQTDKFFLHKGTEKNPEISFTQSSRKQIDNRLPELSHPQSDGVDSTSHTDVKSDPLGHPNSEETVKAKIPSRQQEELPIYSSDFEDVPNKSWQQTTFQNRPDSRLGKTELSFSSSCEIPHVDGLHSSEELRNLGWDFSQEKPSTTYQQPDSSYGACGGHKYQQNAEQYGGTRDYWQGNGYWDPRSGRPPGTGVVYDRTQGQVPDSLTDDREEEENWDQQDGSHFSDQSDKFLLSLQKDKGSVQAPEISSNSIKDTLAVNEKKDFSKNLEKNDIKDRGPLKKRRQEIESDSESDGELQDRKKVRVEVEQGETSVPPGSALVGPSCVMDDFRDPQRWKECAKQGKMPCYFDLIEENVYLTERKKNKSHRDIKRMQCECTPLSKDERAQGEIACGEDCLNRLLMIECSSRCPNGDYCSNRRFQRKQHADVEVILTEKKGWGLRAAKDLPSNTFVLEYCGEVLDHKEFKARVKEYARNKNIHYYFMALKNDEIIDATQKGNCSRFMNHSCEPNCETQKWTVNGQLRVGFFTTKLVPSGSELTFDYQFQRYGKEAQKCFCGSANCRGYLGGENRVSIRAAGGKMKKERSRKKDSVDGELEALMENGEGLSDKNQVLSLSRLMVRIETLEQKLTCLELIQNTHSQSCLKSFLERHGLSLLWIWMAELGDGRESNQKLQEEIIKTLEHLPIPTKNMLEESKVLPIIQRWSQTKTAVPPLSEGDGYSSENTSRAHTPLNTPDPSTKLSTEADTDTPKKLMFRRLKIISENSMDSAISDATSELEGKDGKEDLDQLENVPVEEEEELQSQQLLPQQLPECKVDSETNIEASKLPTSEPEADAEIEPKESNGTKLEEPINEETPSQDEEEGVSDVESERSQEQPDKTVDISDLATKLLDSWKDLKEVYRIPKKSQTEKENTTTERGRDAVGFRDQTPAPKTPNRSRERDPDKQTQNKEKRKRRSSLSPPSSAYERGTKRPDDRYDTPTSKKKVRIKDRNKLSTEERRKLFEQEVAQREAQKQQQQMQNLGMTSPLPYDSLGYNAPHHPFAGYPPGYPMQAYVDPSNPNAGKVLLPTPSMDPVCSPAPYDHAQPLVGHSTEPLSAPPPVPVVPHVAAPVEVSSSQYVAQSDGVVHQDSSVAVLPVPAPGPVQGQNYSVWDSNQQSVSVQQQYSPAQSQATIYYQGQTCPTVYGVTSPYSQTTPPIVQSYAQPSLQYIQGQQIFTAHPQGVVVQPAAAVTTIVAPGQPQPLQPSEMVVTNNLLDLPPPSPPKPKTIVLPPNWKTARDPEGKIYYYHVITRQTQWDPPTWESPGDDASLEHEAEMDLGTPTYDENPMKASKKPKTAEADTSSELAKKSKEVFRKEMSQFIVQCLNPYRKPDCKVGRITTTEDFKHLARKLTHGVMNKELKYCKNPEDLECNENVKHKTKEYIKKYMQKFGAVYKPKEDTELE
Experimental: as §1, §2, §3

PRMT1 = molecular target: T7, PRMT1 (Homo sapiens, UniProt Q99873)
T7 construct: purchased Structural Genomics Consortium (SGC Toronto) in-house methyltransferase panel
T7 sequence (Q99873 whole entry): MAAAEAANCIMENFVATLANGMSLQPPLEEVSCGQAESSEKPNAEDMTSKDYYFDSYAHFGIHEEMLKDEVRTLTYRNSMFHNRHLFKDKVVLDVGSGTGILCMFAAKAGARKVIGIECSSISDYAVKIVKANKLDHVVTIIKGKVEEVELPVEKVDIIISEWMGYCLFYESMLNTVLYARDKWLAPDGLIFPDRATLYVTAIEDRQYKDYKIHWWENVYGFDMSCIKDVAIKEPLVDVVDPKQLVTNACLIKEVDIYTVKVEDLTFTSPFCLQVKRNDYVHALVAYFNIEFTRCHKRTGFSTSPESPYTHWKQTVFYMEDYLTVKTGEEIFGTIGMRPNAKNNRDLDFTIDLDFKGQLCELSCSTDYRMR
Experimental: as §1, §2, §3

SETDB1 = molecular target: T8, SETDB1 (Homo sapiens, UniProt Q15047)
T8 construct: purchased Structural Genomics Consortium (SGC Toronto) in-house methyltransferase panel
Experimental: as §1, §2, §3

PRMT7 = molecular target: T9, PRMT7 (Homo sapiens, UniProt Q9NVM4)
T9 construct: purchased Structural Genomics Consortium (SGC Toronto) in-house methyltransferase panel
T9 sequence (Q9NVM4 1-692): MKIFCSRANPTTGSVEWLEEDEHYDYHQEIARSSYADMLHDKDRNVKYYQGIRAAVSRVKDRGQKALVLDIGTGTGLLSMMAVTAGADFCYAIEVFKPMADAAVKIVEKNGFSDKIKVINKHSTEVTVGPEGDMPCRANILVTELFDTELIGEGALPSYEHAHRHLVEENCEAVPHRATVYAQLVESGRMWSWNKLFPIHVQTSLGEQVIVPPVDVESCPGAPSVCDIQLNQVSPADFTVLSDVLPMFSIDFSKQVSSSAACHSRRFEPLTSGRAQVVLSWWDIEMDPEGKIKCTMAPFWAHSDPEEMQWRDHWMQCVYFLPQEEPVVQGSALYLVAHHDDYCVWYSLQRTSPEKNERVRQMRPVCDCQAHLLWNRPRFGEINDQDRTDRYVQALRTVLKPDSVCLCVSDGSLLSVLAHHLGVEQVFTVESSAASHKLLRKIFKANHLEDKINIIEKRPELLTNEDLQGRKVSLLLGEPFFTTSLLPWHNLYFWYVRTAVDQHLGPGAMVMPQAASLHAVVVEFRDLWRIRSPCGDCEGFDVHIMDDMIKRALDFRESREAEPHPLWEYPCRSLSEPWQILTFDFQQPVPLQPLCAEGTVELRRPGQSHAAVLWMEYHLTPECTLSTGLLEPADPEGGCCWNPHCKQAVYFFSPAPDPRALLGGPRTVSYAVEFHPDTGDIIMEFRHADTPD
Experimental: as §1, §2, §3

[1] = 10µM compound, Exp1, Exp2, 10 µM
[2] = Exp1, Exp2, read-out: Activity %
[3] = 1µM compound, Exp1, Exp2, read-out: Activity %
[4] = 10µM compound, Exp1, Exp2, read-out: Activity %

T1 sequence (Q9NR22 whole entry): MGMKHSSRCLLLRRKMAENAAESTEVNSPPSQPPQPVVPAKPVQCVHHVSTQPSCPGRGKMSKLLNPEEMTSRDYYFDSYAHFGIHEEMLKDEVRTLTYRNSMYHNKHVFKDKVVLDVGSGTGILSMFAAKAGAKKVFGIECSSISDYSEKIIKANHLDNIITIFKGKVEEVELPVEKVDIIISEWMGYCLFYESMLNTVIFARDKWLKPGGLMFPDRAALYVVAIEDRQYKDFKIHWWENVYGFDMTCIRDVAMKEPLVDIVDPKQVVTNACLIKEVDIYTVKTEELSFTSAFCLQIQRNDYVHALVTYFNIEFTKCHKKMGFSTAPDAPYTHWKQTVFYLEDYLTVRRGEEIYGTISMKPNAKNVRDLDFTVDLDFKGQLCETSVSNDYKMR

## COc1cc(OC)cc(-c2noc(N3CCN(C)C4(CCN(c5ccccc5)CC4)C3)n2)c1 [MRK-740 -NC]
PRMT8; Exp1, Exp2
  activity at 1 µM: 97%
  activity at 10 µM: 98%
PRMT8
  Activity %: 104%
SMYD2; 1µM compound, Exp1, Exp2
  activity at 1 µM: 102%
SMYD2; 1µM compound, Exp1, Exp2, 1 µM
  Activity %: 100%
SMYD2; 10µM compound, Exp1, Exp2
  activity at 10 µM: 101%
SMYD2; [1]
  Activity %: 99%
MLL1 trimeric complex; 1µM compound, Exp1, Exp2
  activity at 1 µM: 95%
MLL1 trimeric complex; 10µM compound, Exp1, Exp2
  activity at 10 µM: 98%
MLL1 trimeric complex; [1]
  Activity %: 97%
SUV39H2; 1µM compound, Exp1, Exp2
  activity at 1 µM: 93%
SUV39H2; 10µM compound, Exp1, Exp2
  activity at 10 µM: 86%
SUV39H2; [1]
  Activity %: 96%
SUV420H2; 1µM compound, Exp1, Exp2
  activity at 1 µM: 106%
SUV420H2; 10µM compound, Exp1, Exp2
  activity at 10 µM: 98%
SUV420H2; [1]
  Activity %: 103%
SETD2; 1µM compound, Exp1, Exp2
  activity at 1 µM: 97%
SETD2; 1µM compound, Exp1, Exp2, 1 µM
  Activity %: 107%
SETD2; 10µM compound, Exp1, Exp2
  activity at 10 µM: 99%
SETD2; [1]
  Activity %: 98%
PRMT1; 1µM compound, Exp1, Exp2
  activity at 1 µM: 108%
PRMT1; 1µM compound, Exp1, Exp2, 1 µM
  Activity %: 109%
PRMT1; 10µM compound, Exp1, Exp2
  activity at 10 µM: 105%
PRMT1; [1]
  Activity %: 98%
SETDB1; 1µM compound, Exp1, Exp2
  activity at 1 µM: 104%
SETDB1; 10µM compound, Exp1, Exp2
  activity at 10 µM: 101%
SETDB1; [1]
  Activity %: 86%
PRMT7; 1µM compound, Exp1, Exp2
  activity at 1 µM: 99%
PRMT7; 1µM compound, Exp1, Exp2, 1 µM
  Activity %: 92%
PRMT7; 10µM compound, Exp1, Exp2
  activity at 10 µM: 91%
PRMT7; [1]
  Activity %: 97%

## COc1cc(OC)cc(-c2noc(N3CCN(C)C4(CCN(c5ccnc(C)c5)CC4)C3)n2)c1 [MRK-740]
PRMT8
  Activity %: 95%
PRMT8; [2]
  activity at 1 µM: 104%
  activity at 10 µM: 105%
SMYD2; 1µM compound, Exp1, Exp2, 1 µM
  Activity %: 89%
SMYD2; [3]
  activity at 1 µM: 86%
SMYD2; [1]
  Activity %: 92%
SMYD2; [4]
  activity at 10 µM: 91%
MLL1 trimeric complex; 1µM compound, Exp1, Exp2, 1 µM
  Activity %: 90%
MLL1 trimeric complex; [3]
  activity at 1 µM: 96%
MLL1 trimeric complex; [1]
  Activity %: 90%
MLL1 trimeric complex; [4]
  activity at 10 µM: 94%
SUV39H2; 1µM compound, Exp1, Exp2, 1 µM
  Activity %: 89%
SUV39H2; [3]
  activity at 1 µM: 92%
SUV39H2; [1]
  Activity %: 90%
SUV39H2; [4]
  activity at 10 µM: 92%
SUV420H2; 1µM compound, Exp1, Exp2, 1 µM
  Activity %: 95%
SUV420H2; [3]
  activity at 1 µM: 97%
SUV420H2; [1]
  Activity %: 103%
SUV420H2; [4]
  activity at 10 µM: 100%
SETD2; 1µM compound, Exp1, Exp2, 1 µM
  Activity %: 96%
SETD2; [3]
  activity at 1 µM: 97%
SETD2; [1]
  Activity %: 86%
SETD2; [4]
  activity at 10 µM: 90%
PRMT1; 1µM compound, Exp1, Exp2, 1 µM
  Activity %: 96%
PRMT1; [3]
  activity at 1 µM: 94%
PRMT1; [1]
  Activity %: 89%
PRMT1; [4]
  activity at 10 µM: 91%
SETDB1; 1µM compound, Exp1, Exp2, 1 µM
  Activity %: 84%
SETDB1; [3]
  activity at 1 µM: 81%
SETDB1; [1]
  Activity %: 96%
SETDB1; [4]
  activity at 10 µM: 86%
PRMT7; 1µM compound, Exp1, Exp2, 1 µM
  Activity %: 90%
PRMT7; [3]
  activity at 1 µM: 92%
PRMT7; [1]
  Activity %: 87%
PRMT7; [4]
  activity at 10 µM: 89%

— paper PMC6917776, “Discovery of a chemical probe for PRDM9” (Nature Communications, 2019)
